Structures can show the parent of a compound that is named as a salt.
Experiments:
Assay type in all cases: physicochemical
[1] = Solution stability in buffer solutions; details: buffer solutions pH about 1.2 to about 10.0, about 60° C., 2 days
Description: The stability of Compound I HCl Form I in buffer solutions over a pH range of about 1.2 to about 10.0 was also evaluated. These solutions were stored at about 60° C., and assayed for pH and % remaining at 2 days.

[2] = Approximate kinetic solubility in organic solvents; details: kinetic from dmso stock
Source text: (§1) A summary of the approximate kinetic solubility of Compound I HCl Form I in organic solvents, simulated biological fluids, and common pharmaceutical co-solvents is provided in Tables 8-10, respectively.

[3] = Thermodynamic aqueous solubility by HPLC; details: HPLC grade water, 25° C., 24 hours; second scale up material; listed as Comp. I HCl (formed using aqueous HCl) Form I
Description: The suspension was equilibrated at 25° C. for 24 hours. The suspension was then passed through a filter into an HPLC vial. The filtrate was then diluted by an appropriate factor. Quantification was executed by HPLC with reference to a standard solution of approximately 1 mg·mL^−1 in acetonitrile:water (1:1). Different volumes of the standard, diluted and undiluted sample solutions were injected. […] HPLC method parameters are described in Table 1 and Table 2.
Analysis was performed on an Agilent 1100 series liquid chromatography, equipped with a UV detector (DAD or VWD) @ 254 nm and using Chemstation Rev.B.01.03 software for data processing.
The solubility of the salts/co-crystals of Compound I prepared from the second scale up process was analyzed. The materials recovered after the solubility analysis were evaluated by XRPD to observe any form changes.

[4] = Storage under vacuum at 40° C. and at 60° C.; details: 4 days, initial HPLC purity 99.3%
Description: Storage under vacuum at 40° C. and at 60° C.: Compound I HCl Form I was stored under vacuum at 40° C. and at 60° C. Initial HPLC purity was 99.3%.

[5] = Gravimetric vapor sorption (GVS) hygroscopicity; details: for GVS weight gain / total weight uptake: at/after about 70% RH, 25° C.
Description: Sorption isotherms were obtained using a Hiden Isochema moisture sorption analyser (model IGAsorp), controlled by IGAsorp Systems Software v6.50.48. The sample was maintained at a constant temperature (25° C.) by the instrument controls. The humidity was controlled by mixing streams of dry and wet nitrogen, with a total flow of 250 mL·min^−1. The instrument was verified for relative humidity content by measuring three calibrated Rotronic salt solutions (10-50-88%). The weight change of the sample was monitored as a function of humidity by a microbalance (accuracy+/−0.005 mg). A defined amount of sample was placed in a tared mesh stainless steel basket under ambient conditions. A full experimental cycle consisted of two scans (sorption and desorption) at a constant temperature (25° C.) and 10% RH intervals over a 10-90% range (90 minutes for each humidity level).
The hygroscopicity of the esylate, mesylate, HCl, and sulfate salts/co-crystals of Compound I formed via the first scale up process was analyzed. All hygroscopicity experiments covered a wide range of humidity (0 to about 90% relative humidity) and were performed at about 25° C. to assess behavior.

[6] = Dynamic vapor sorption (DVS) analysis
Source text: In view of the DVS analysis, compound I HCl Form I may be characterized as a monohydrate.

[7] = Approximate kinetic solubility in simulated biological fluids; details: about 37° C.; for solubility kinetic at 2 h: equilibrated for 2 hrs; for solubility kinetic at 1 day: equilibrated for 1 day
Source text: as §1

[8] = Polymorphic stability at elevated temperatures
[9] = simulated gastric fluid, SGF (pH 1.2)

With `CCS(=O)(=O)N1CCN(c2ccc(Nc3ncc(C(N)=O)c(NC4CC4)n3)cc2)CC1` [Compound I HCl Form I, 4-(cyclopropylamino)-2-(4-(4-(ethylsulfonyl)piperazin-1-yl)phenylamino)pyrimidine-5-carboxamide] as the molecule, how does the “pH at which most stable in solution (% remaining)” value [1] read?
The value was “about 4.5”.

And the solubility kinetic ([2]; Acetone, MeCN, IPA, EtOAc, THF, Dioxane, DCM, organic solvent or mixture)?
The solubility kinetic was < 100 µg/mL.

What about the solubility kinetic ([2]; DMF, PEG300, organic solvent or mixture) of the same molecule?
Its solubility kinetic is 1000 to 10000 µg/mL.

What about the solubility kinetic ([2]; DMSO, organic solvent or mixture) of the same molecule?
The solubility kinetic was 10000 to 33300 µg/mL.

What about the solubility kinetic ([2]; Methanol, Ethanol, PG, Safflower Seed Oil, Tween 80, organic solvent or mixture) of the same molecule?
Its solubility kinetic is 100 to 1000 µg/mL.

And the solubility [3]?
Its solubility is 350 µg/mL.

And the “Form change / HPLC purity on storage under vacuum” value ([4]; 40° C.)?
The value was “No form change or decrease in purity by HPLC”.

And the “Form change / HPLC purity on storage under vacuum” value ([4]; 60° C.)?
The value was “No form change or decrease in purity by HPLC”.

And the “GVS weight gain / total weight uptake” value [5]?
The value was “about 5.9%”.

And the “GVS weight gain / total weight uptake” value ([5]; listed as Comp. I HCl (aq., 1:2) Form I)?
Its value is “About 5.9%”.

And the “Crystalline form by XRPD post GVS analysis” value ([5]; exposure to humidity 0 to about 90% RH, about 25° C.)?
Its value is “does not result in a form change”.

And the GVS mass lost ([5]; kept under about 100% dry atmosphere)?
Its GVS mass lost is “about 0.5%”.

And the GVS weight variation ([5]; up to about 70% RH)?
Its GVS weight variation is “does not vary significantly”.

And the “De-hydration and re-hydration behaviour (DVS)” value [6]?
The value was “reversible”.

What about the “RH at which complete moisture re-uptake is observed (DVS)” value [6] of the same molecule?
Its value is “about 20 % RH”.

And the DVS weight ([6]; below about 10% RH)?
The DVS weight was “up to 3.5%”.

And the DVS moisture uptake ([6]; between about 40% and about 90% RH)?
The DVS moisture uptake was “minimal moisture uptake with no hysteresis”.

And the solubility kinetic at 2 h ([7]; FaSSIF (pH 6.1))?
The solubility kinetic at 2 h was 3 µg/mL.

What about the solubility kinetic at 1 day ([7]; FaSSIF (pH 6.1)) of the same molecule?
The solubility kinetic at 1 day was 3 µg/mL.

And the solubility kinetic at 2 h ([7]; FeSSIF (pH 5.0))?
Its solubility kinetic at 2 h is 35 µg/mL.

And the solubility kinetic at 1 day ([7]; FeSSIF (pH 5.0))?
The solubility kinetic at 1 day was 39 µg/mL.

And the solubility kinetic at 2 h [7, 9]?
The solubility kinetic at 2 h was 67 µg/mL.

And the solubility kinetic at 1 day [7, 9]?
The solubility kinetic at 1 day was 78 µg/mL.

And the “Polymorphism after re-hydrating post-TGA material (DSC)” value ([8]; 3 days at about 60% RH)?
The value was “no gross effect upon the polymorphism, but amorphous content did appear”.

What about the “Crystalline form after dry-heating (XRPD, DSC, proton NMR)” value ([8]; about 50° C., about 72 hours) of the same molecule?
Its value is “did not change the crystalline form”.

And the “Crystalline form after heating inside TGA” value ([8]; up to about 120° C. until approximately 3% weight loss)?
The value was “slight loss of crystallinity, but without a new form appearing”.

— patent publication US11713309B2, “Solid forms of Cerdulatinib” (Alexion Pharmaceuticals, Inc., priority 2018, dated 2023)
